Results reported in patent EP4818169A1, “CRYSTAL FORM OF COMPOUND SALT, PREPARATION METHOD THEREFOR AND USE THEREOF” (Apeiron Therapeutics (Hong Kong) Ltd., priority 2024, dated 2025).
≈ marks a conversion by molar mass, not a printed value.

Columns and labels:
[1] = Mechanical stability: jet milling; assay type: physicochemical; details: feed and milling pressure 5.5 bar, 23 °C; XRPD
Procedure: The milled powder was then analyzed by XRPD and PLM, with results shown in Figure 27 and Figure 28, respectively.

[2] = Dynamic solubility in different media (HPLC); assay type: physicochemical; details: for Crystalline Form Change / Solubility / pH: 24 h; for Crystalline Form Change: XRPD of precipitated solids; for Solubility: 37°C; for solubility at 24 h: 37 °C, thermodynamic from solid; for pH: pH of supernatant
Procedure: The preparation method of simulated gastrointestinal fluid involved in the present disclosure is: SGF: Transfer 2.02 g of sodium chloride into a 1000 mL beaker and add 950 mL of purified water to dissolve. Next, adjust the pH to 1.2 with 12 N hydrochloric acid. Transfer the solution to a 1000 mL volumetric flask and make up to 1000 mL with purified water.
FeSSIF: Transfer 4.04 g of sodium hydroxide, 8.65 g of acetic acid, and 11.87 g of sodium chloride into a 1000 mL volumetric flask, and dissolve with 950 mL of purified water. Titrate the obtained solution to pH 5.0 with 1M sodium hydroxide or 1M hydrochloric acid aqueous solution, and then make up to 1000 mL with purified water. Finally, weigh 11.20 g of SIF powder, add it to the above 1000 mL of pH 5.0 solution, and stir magnetically until clear.
(§1) A total of 10 mg of maleate crystalline form A was transferred into a dry, clean 4 mL glass vial. Then, 1 mL of simulated gastric fluid (SGF), fed state simulated intestinal fluid (FeSSIF), or purified water was added to the vial. All vials were placed on a shaker and agitated at 200 rpm at 37°C.
At the predetermined time point (24 h), 200 µL of the sample was withdrawn from the vial into a centrifuge tube and centrifuged at 90,000 rpm for 5 min. An appropriate amount of the supernatant was then diluted and analyzed by HPLC to determine the solubility.
The remaining 800 µL of suspension in the vial was centrifuged at 8000 rpm for 10 min. The pH of the resulting supernatant was measured, and the precipitated solids were vacuum-dried at 40°C for approximately 16 h. The dried precipitated solids were then characterized by X-ray powder diffraction.
as §1, with “p-toluenesulfonate” for “maleate”
At the predetermined time point (24 h), 200 µL of the sample was withdrawn from the vial into a centrifuge tube and centrifuged at 90,000 rpm for 5 min. An appropriate amount of the supernatant was then diluted and analyzed by high performance liquid chromatography to determine the solubility.

[3] = Hygroscopicity by dynamic vapor sorption (DVS) test; assay type: physicochemical; details: for hygroscopic weight gain: DVS, 25°C, from 0% RH to 80% RH; for crystalline form after the DVS test: XRPD before and after DVS test
Procedure: Moisture adsorption and desorption data were obtained using a dynamic vapor sorption device (Model TA Discovery SA). Samples were equilibrated at 25°C/0% RH for 300 min at the start of the experiment. Thereafter, humidity was varied from 0% to 95% RH in 5% RH increments, with nitrogen used to control and maintain the humidity. Equilibration during testing was defined as a mass change rate of < 0.02% per minute over 10 min, with a maximum equilibration time of 120 min.
From 0% RH to 80% RH, the hygroscopic weight gain was approximately 0.25%, indicating very low hygroscopicity.

[4] = Physicochemical stability on open storage (XRPD and HPLC); details: for Crystalline Form Change: merged cell for all storage conditions (40°C/75%RH, 60 °C, 25°C/60%RH, open) and times (2 and 4 weeks), XRPD
Procedure: The high performance liquid chromatography (HPLC) method for determining enantiomeric excess (%) used in the present application is shown in Table 5.
The purity testing method described in the present application is shown as follows.
(§2) For chemical stability studies, two open samples were prepared at each time point for each condition. Approximately 2 mg of maleate crystalline form A was transferred into a 20 mL glass vial, which was then covered with perforated aluminum foil to serve as an open sample. Samples were stored at 25°C/60% RH, 40°C/75% RH, and 60°C.
as §2, with “For physical” for “For chemical”, “Approximately 10” for “Approximately 2”, “was” for “was then”
All samples were stored for 4 weeks under the specified storage conditions. At predetermined time points (initial, 2 weeks, and 4 weeks), the corresponding samples were withdrawn and subject to chemical and physical evaluations, respectively. The physicochemical stability was assessed by XRPD and HPLC.
as §2, with “p-toluenesulfonate” for “maleate”
as §2, with “For physical” for “For chemical”, “Approximately 10” for “Approximately 2”, “of p-toluenesulfonate” for “of maleate”, “was” for “was then”, “and 60°C, respectively.” for “and 60°C.”

[5] = Stability of the crystalline form in the formulation (tablet compression with microcrystalline cellulose); assay type: physicochemical; details: 50% (w/w) with microcrystalline cellulose PH102, tablets compressed at 4.2 kN and 9.2 kN; XRPD
Procedure: Equal amounts of maleate crystalline form A and microcrystalline cellulose PH102 were weighed to prepare a powder formulation comprising 50% (w/w) maleate crystalline form A, and the two components were mixed thoroughly.
A total of 200 mg of the uniformly mixed powder was transferred into an 8 mm-diameter die of a rotary tablet press. One tablet was compressed at 4.2 kN and another at 9.2 kN.
The resulting tablets were characterized for weight and hardness.

[6] = Mechanical stability: pressurization method; assay type: physicochemical; details: 40 MPa held for 1 min, 5 mm die; XRPD
Procedure: Pressurization method: Maleate crystalline form A was weighed and transferred into a 5 mm-diameter die. The upper piston was then manually driven down into the die until a pressure of 40 MPa was reached and held for 1 min. Subsequently, the sample was removed and manually ground into a powder. Finally, the resulting powder was analyzed by XRPD.

Crystalline Form Change ([2]; FeSSIF)	Solubility ([2]; H2O) [µg/mL]	Crystalline Form Change ([2]; H2O)	Crystalline Form Change ([2]; SGF)	pH ([2]; FeSSIF)	pH ([2]; H2O)	pH ([2]; SGF)	hygroscopic weight gain [3]	crystalline form after the DVS test [3]	Appearance ([4]; 25°C/60%RH (Open), 2 weeks)	Purity (%) ([4]; 25°C/60%RH (Open), 2 weeks)	ee (%) ([4]; 25°C/60%RH (Open), 2 weeks)	Appearance ([4]; 25°C/60%RH (Open), 4 weeks)	Purity (%) ([4]; 25°C/60%RH (Open), 4 weeks)	ee (%) ([4]; 25°C/60%RH (Open), 4 weeks)	Appearance ([4]; 40°C/75%RH (Open), 2 weeks)	Purity (%) ([4]; 40°C/75%RH (Open), 2 weeks)	ee (%) ([4]; 40°C/75%RH (Open), 2 weeks)	Appearance ([4]; 40°C/75%RH (Open), 4 weeks)	Purity (%) ([4]; 40°C/75%RH (Open), 4 weeks)	SMILES	other results
None	42.12	None	None	4.83	4.17	0.96	approximately 0.25%	did not change	Off-white powder	99.68	100.00	Off-white powder	99.67	100.00	Off-white powder	99.69	100.00	Off-white powder	99.67	CN(C(=O)c1ccc2nc(N)c3cncn3c2c1)[C@@H]1COc2cc(C(F)(F)F)ccc21 [Maleate crystalline form A, (S)-4-amino-N-methyl-N-(6-(trifluoromethyl)-2,3-dihydrobenzofuran-3-yl)imidazo[1,5-a]quinoxaline-8-carboxamide]	crystalline form after jet milling [1]: retained its crystalline form; solubility at 24 h ([2]; fed state simulated intestinal fluid (FeSSIF), pH 5, fessif, FeSSIF): 258 µg/mL; solubility at 24 h ([2]; simulated gastric fluid (SGF), pH 1.2, simulated gastric fluid, SGF): 443 µg/mL; ee (%) ([4]; 40°C/75%RH (Open), 4 weeks): 100.00%; Appearance ([4]; 60 °C (Open), 2 weeks): Off-white powder; Purity (%) ([4]; 60 °C (Open), 2 weeks): 99.69%; ee (%) ([4]; 60 °C (Open), 2 weeks): 100.00%; Appearance ([4]; 60 °C (Open), 4 weeks): Off-white powder; Purity (%) ([4]; 60 °C (Open), 4 weeks): 99.67%; ee (%) ([4]; 60 °C (Open), 4 weeks): 100.00%; Appearance ([4]; Initial): Off-white powder; Purity (%) ([4]; Initial): 99.66%; ee (%) ([4]; Initial): 100.00%; Crystalline Form Change [4]: None; crystallinity in the formulation [5]: remained relatively stable; crystalline form after pressurization [6]: retained its crystalline form
None	248.78 (≈ 582 µM)	None	None	4.78	3.19	0.98	approximately 0.37%	did not change	Off-white powder	99.83	100.00	Off-white powder	99.84	100.00	Off-white powder	99.84	100.00	Off-white powder	99.80	CN(C(=O)c1ccc2nc(N)c3cncn3c2c1)[C@@H]1COc2cc(C(F)(F)F)ccc21 [p-toluenesulfonate crystalline form A, (S)-4-amino-N-methyl-N-(6-(trifluoromethyl)-2,3-dihydrobenzofuran-3-yl)imidazo[1,5-a]quinoxaline-8-carboxamide]	Solubility ([2]; FeSSIF): 365.38 µg/mL (≈ 855 µM); Solubility ([2]; SGF): 293.98 µg/mL (≈ 688 µM); ee (%) ([4]; 40°C/75%RH (Open), 4 weeks): 100.00%; Appearance ([4]; 60 °C (Open), 2 weeks): Off-white powder; Purity (%) ([4]; 60 °C (Open), 2 weeks): 99.66%; ee (%) ([4]; 60 °C (Open), 2 weeks): 100.00%; Appearance ([4]; 60 °C (Open), 4 weeks): Off-white powder; Purity (%) ([4]; 60 °C (Open), 4 weeks): 99.50%; ee (%) ([4]; 60 °C (Open), 4 weeks): 100.00%; Appearance ([4]; Initial): Off-white powder; Purity (%) ([4]; Initial): 99.81%; ee (%) ([4]; Initial): 100.00%; Crystalline Form Change [4]: None
